Read-outs that look alike come from different tables or passages of the source.
Assays:
RTgill-W1 cells [1] = type: cell-based, rainbow trout, Oncorhynchus mykiss
RTgill-W1 cells [2] = experiment: Long-term storage testing of RTgill-W1 fluidic biochips with PCP exposure (ECIS); type: cell-based, rainbow trout, Oncorhynchus mykiss; conditions: 9.4 μM
Method: The following description provides an example of a method for long-term testing of RTgill-W1 fluidic biochips according to an embodiment of the invention. In order to study the effects of cold storage with no media replenishment on the viability and sensitivity of the RTgill-W1 cells, fluidic biochips are seeded, held at 20° C., and media changes are performed on days 4 and 7 as described above, then held at 6° C. with no media replenishment for up to one year. Three chips are removed for viability assessment and ECIS testing using the 9.4 μM detection level for PCP (FIG. 1) at 4, 8, 12, 16, 20, 24, 32, 38, and 52 weeks and the chemical exposure procedure described above.
The following description provides an example of a method for statistical analysis according to an embodiment of the invention. A curve discrimination program using MATLAB (available from The MathWorks, Inc., Natick, Mass.) is used to perform the statistical analysis. […] This program analyzes impedance data from control and toxicant-exposed cells every minute during a 60 minute window. The overall difference between the two groups of curves is compared at each time point, and the difference between their averages is assessed relative to the within-group variability. A confidence level of […] (p<0.001) is used to establish statistical significance. Functional data analysis techniques are used to extend the standard single time point analysis of variance approach to a curve consisting of approximately 60 points. The lowest toxicant concentrations that cause a significant change in impedance in at least ten consecutive time intervals over a 60 minute period are reported as the detection levels in FIG. 1.
Unfed RTgill-W1 cells are maintained at 6° C. for different durations and subsequently tested with PCP exposures at 9.4 μM. […] The line with triangle data points and the line with square data points show, respectively, 1-hour and 4-hour average of response difference between the control and treatment channels at each respective storage time for 3 replicate fluidic biochips. Significance at each time point (p<0.001) is depicted by an * and requires a positive detection for all 3 replicate chips using the curve discrimination program. […] If the impedance patterns shown for the 12° C. and 20° C. chips are predictive indicators of the impedance patterns of the 6° C. chips, the 6° C. chips may remain viable for approximately 18 months, but most likely not beyond 2 years of storage.

[3] = one hour exposure, MEG = Military Exposure Guideline, HLC = Human Lethal Concentration, ECIS impedance

## C=CC#N [Acrylonitrile, acrylonitrile]
RTgill-W1 cells [1]; at levels above the HLC
  chips in which the chemical is detected: 3 out of 3
RTgill-W1 cells [1]; [3]
  concentration at which the chemical is detected, relative to MEG and HLC: above the HLC

## CNC(=O)O/N=C/C(C)(C)SC [aldicarb]
RTgill-W1 cells [1]; at levels above the HLC
  chips in which the chemical is detected: 3 out of 3
RTgill-W1 cells [1]; [3]
  concentration at which the chemical is detected, relative to MEG and HLC: above the HLC

## Cl.N [ammonia, ammonium chloride]
RTgill-W1 cells [1]; one hour exposure, p<0.001
  change in impedance compared to controls: significant decrease

## [N-]=[N+]=[N-] [azide]
RTgill-W1 cells [1]
  change in impedance compared to controls: significant decrease
  concentration at which the chemical is detected, relative to MEG and HLC: between the MEG and the HLC

## O=S(=O)([O-])[O-].[Cu+2] [copper, copper sulfate]
RTgill-W1 cells [1]
  change in impedance compared to controls: increased impedance
  concentration at which the chemical is detected, relative to MEG and HLC: between the MEG and the HLC

## O=C([O-])CF.[Na+] [fluoroacetate, sodium fluoroacetate]
RTgill-W1 cells [1]
  chips in which the chemical is detected: 3 out of 3
  concentration at which the chemical is detected, relative to MEG and HLC: above the HLC

## COP(N)(=O)SC (stereo not drawn) [methamidophos]
RTgill-W1 cells [1]; at levels above the HLC
  chips in which the chemical is detected: 3 out of 3
RTgill-W1 cells [1]; [3]
  concentration at which the chemical is detected, relative to MEG and HLC: above the HLC

## COP(=S)(OC)Oc1ccc([N+](=O)[O-])cc1 [methyl parathion]
RTgill-W1 cells [1]
  change in impedance compared to controls: significant decrease
  concentration at which the chemical is detected, relative to MEG and HLC: between the MEG and the HLC

## CN1CCCC1c1cccnc1 (stereo not drawn) [nicotine]
RTgill-W1 cells [1]
  chips in which the chemical is detected: 3 out of 3
  concentration at which the chemical is detected, relative to MEG and HLC: above the HLC

## C[n+]1ccc(-c2cc[n+](C)cc2)cc1 [paraquat, paraquat dichloride]
RTgill-W1 cells [1]; at levels above the HLC
  chips in which the chemical is detected: 3 out of 3
RTgill-W1 cells [1]; [3]
  concentration at which the chemical is detected, relative to MEG and HLC: above the HLC

## Oc1c(Cl)c(Cl)c(Cl)c(Cl)c1Cl [pentachlorophenate, sodium pentachlorophenate]
RTgill-W1 cells [1]; lowest concentration causing significant impedance change in at least ten consecutive time intervals over 60 minutes
  detection level: 9.4 µM
RTgill-W1 cells [1]; [3]
  concentration at which the chemical is detected, relative to MEG and HLC: between the MEG and the HLC
RTgill-W1 cells [1]; one hour exposure, p<0.001
  change in impedance compared to controls: significant decrease
RTgill-W1 cells [2]; 1 hour and 4 hour exposures, one year storage at 6° C.
  responsiveness after one year storage: significantly responsive
RTgill-W1 cells [2]; chips stored at 6° C. unfed, all storage time points indicated
  response to PCP exposure: positive response
RTgill-W1 cells [2]; storage at 6° C., additional at 140 and 266 days, p<0.001, 3 replicate chips
  significance of response, 4 hours exposure: significant responses
RTgill-W1 cells [2]; storage at 6° C., time points of 14-114 days and 364 days, p<0.001, 3 replicate chips
  significance of response, 1 hour exposure: significant

## Oc1ccccc1 [phenol]
RTgill-W1 cells [1]
  chips in which the chemical is detected: 3 out of 3
  concentration at which the chemical is detected, relative to MEG and HLC: above the HLC

## O=S(=O)([O-])[O-].[Tl+].[Tl+] [thallium, thallium sulfate]
RTgill-W1 cells [1]; at levels above the HLC
  chips in which the chemical is detected: 3 out of 3
RTgill-W1 cells [1]; [3]
  concentration at which the chemical is detected, relative to MEG and HLC: above the HLC

## Cc1ccccc1 [toluene]
RTgill-W1 cells [1]
  change in impedance compared to controls: significant decrease
  concentration at which the chemical is detected, relative to MEG and HLC: between the MEG and the HLC

## mercuric chloride [mercury]
RTgill-W1 cells [1]
  change in impedance compared to controls: significant decrease
  concentration at which the chemical is detected, relative to MEG and HLC: between the MEG and the HLC

## sodium arsenite [arsenic]
RTgill-W1 cells [1]
  change in impedance compared to controls: significant decrease
  concentration at which the chemical is detected, relative to MEG and HLC: between the MEG and the HLC

Source: patent US20120156715A1, “Environmental Sentinel Biomonitor System (ESB)” (priority 2010, published 2012)
